Measured values as given in PubChem BioAssay (NCI).
“And” between values parts separate entries of the source, which are not always exact repeats. Equal entries are not always repeated.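 Cultured in 96-well plates, cells were exposed to test compound for 48 hours across five concentrations. GI50: concentration for 50% inhibition of growth. TGI: total growth inhibition.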

How the values were obtained:
Assay in all cases: NCI tumour cell line growth inhibition, 48 h
UACC-257 melanoma = test system: UACC-257 melanoma
T-47D breast = test system: T-47D breast
MOLT-4 leukemia = test system: MOLT-4 leukemia
HS 578T breast = test system: HS 578T breast
M14 melanoma = test system: M14 melanoma
K-562 leukemia = test system: K-562 leukemia
U251 CNS = test system: U251 CNS
SF-539 CNS = test system: SF-539 CNS
SNB-19 CNS = test system: SNB-19 CNS
SNB-75 CNS = test system: SNB-75 CNS

Row | Structure (SMILES) | TGI (UACC-257 melanoma) [µM] | TGI (T-47D breast) [µM] | TGI (MOLT-4 leukemia) [µM] | TGI (HS 578T breast) [µM] | TGI (M14 melanoma) | TGI (K-562 leukemia) [µM] | TGI (U251 CNS) | TGI (SF-539 CNS) [µM] | TGI (SNB-19 CNS) [µM] | GI50 (M14 melanoma) [µM] | GI50 (K-562 leukemia) | GI50 (U251 CNS) | TGI (SNB-75 CNS) [µM]
1 | CCOC(=O)/C=C1\Nc2ccccc2C12CCc1c([nH]c3ccccc13)C2C(=O)OCC (stereo unspecified) | > 100 | > 100 | > 100 | > 100 | > 100 µM | > 100 | > 100 µM | > 100 | > 100 |  |  |  | 
2 | COc1cc2c3c(n(CCCNCCO)c(=O)c2cc1OC)-c1cc2c(cc1C3=O)OCO2 |  | 1.52 | 0.0279 | 27.3 | 0.573 µM and 0.679 µM | > 100 | 1.09 µM and 1.62 µM | 1.36 | > 100 | 0.0575 | 2.16 µM and 0.511 µM | 0.0191 µM and < 0.0383 µM | 
3 | Cn1c(N)c(/C=N/NC(=O)CC#N)c(=O)n(C)c1=O | > 100 | > 100 | > 100 | > 100 | > 100 µM |  | > 100 µM |  | > 100 |  |  |  | > 100
4 | CC(C)=CC(=O)O[C@@H]1CC(C)(C)CC2C3=CCC4[C@]56CC[C@](O)(OC5)C(C)(C)C6CC[C@@]4(C)C3(C)CC[C@]21C(=O)O (stereo partly specified) | > 100 | > 100 | > 100 | > 100 | > 100 µM | > 100 | > 100 µM | > 100 | > 100 |  |  |  | 
5 | CC(C)(CN1CCCCC1)C(=O)CC(SCCS(=O)(=O)O)c1ccc(Br)cc1 (stereo unspecified) | 11.5 |  | 7.62 |  | 3.54 µM | 8.63 | 3.16 µM | 3.96 | 5.44 |  |  |  | 6.16
6 | CC1=NNC(N)=N/C1=C/C(Sc1ccc(Cl)cc1)c1cccs1 (stereo unspecified) | 45.5 | 62.2 | > 100 | > 100 | 28 µM | 67.9 | > 100 µM |  | 85.7 |  |  |  | 
7 | O=C1CCSSCCC(=O)Nc2ccccc2N1 | > 100 | > 100 | > 100 | > 100 | > 100 µM | > 100 | > 100 µM | > 100 | > 100 |  |  |  | 
8 | Cc1nc2c(n1Cc1ccc(Cl)cc1)C(=O)c1ccccc1C2=O | > 75 |  | > 75 |  | > 75 µM | > 75 | > 75 µM | > 75 | > 75 |  |  |  | > 75
9 | CCCCC[C@H](O)[C@H](C)C=C1SCCCS1 | > 100 | > 100 | > 100 | > 100 | > 100 µM | > 100 | > 100 µM |  | > 100 |  |  |  | > 100
10 | COc1ccc(Cn2nc(OCc3ccccn3)c3cc([N+](=O)[O-])ccc32)cc1 | > 100 | > 100 | > 100 | > 100 | > 100 µM | > 100 |  | > 100 | > 100 |  |  |  | 
11 | N#Cc1c(N)c(-c2ccc(Cl)cc2)c(F)c2ccccc12 | > 100 | > 100 |  | > 100 | > 100 µM | > 100 | > 100 µM | > 100 | > 100 |  |  |  | > 100
12 | O=C(Cn1c2ccc(Br)cc2c2nc3ccccc3nc21)NC1CCCCC1 | > 100 | > 100 | > 100 | > 100 | > 100 µM | > 100 | > 100 µM |  | > 100 |  |  |  | > 100
13 | O=C(Cc1nc2ccc(C(=O)c3ccccc3)cc2[nH]c1=O)C(=O)Nc1ccccc1[N+](=O)[O-] | > 100 | > 100 |  | > 100 | > 100 µM | > 100 | > 100 µM | > 100 |  |  |  |  | > 100
14 | Cc1ccc(S(=O)(=O)Nn2c(-c3ccccc3)c(C#N)c(-c3ccc([N+](=O)[O-])cc3)c(C#N)c2=O)cc1 | > 100 |  | > 100 | > 100 | > 100 µM |  | > 100 µM | > 100 | > 100 |  |  |  | > 100
15 | O=C1/C(=C/c2cccc(Oc3ccccc3)c2)N=C(c2ccccc2)N1c1nc2ccc(Sc3ccccc3)cc2[nH]1 | 85.6 | > 100 | > 100 | > 100 | 74.8 µM | > 100 | > 100 µM |  | > 100 |  |  |  | 60.4
16 | O=C1c2cc(Cl)ccc2-n2c(noc2=O)C2CSCN12 (stereo unspecified) | > 100 | > 100 | > 100 | > 100 | > 100 µM | > 100 | > 100 µM |  | > 100 |  |  |  | > 100
17 | Cc1ccc(Nc2nc(=O)[nH]c(=O)[nH]2)cc1N | > 100 | > 100 |  | > 100 | > 100 µM |  | > 100 µM | > 100 | > 100 |  |  |  | > 100
18 | COc1cc(C(=O)Nc2nnc(S(N)(=O)=O)s2)cc(OC)c1OC | > 100 | > 100 | > 100 | > 100 | > 100 µM | > 100 | > 100 µM | > 100 | > 100 |  |  |  | 
19 | Cc1ccc(S(=O)(=O)C(C#N)c2nc3ccccc3nc2-n2cccn2)cc1 (stereo unspecified) | > 100 |  | > 100 |  | > 100 µM | > 100 | > 100 µM | > 100 | > 100 |  |  |  | > 100
20 | CCCCCCCCCCCCCCCCOCC(CC(F)(F)P(=O)(O)O)OC(C)=O (stereo unspecified) | > 50 |  | > 50 |  | > 50 µM | > 50 | > 50 µM |  | > 50 |  |  |  | > 50
21 | C/C(=N\N=C(N)N)c1c(C(=O)OCCCCCCOC(=O)c2nc3sccn3c2/C(C)=N/N=C(N)N)nc2sccn12 | > 100 | 42.5 | > 100 | > 100 | > 100 µM | 50.1 | > 100 µM |  | > 100 |  |  |  | > 100
22 | O=C(c1cccs1)N(C(=S)N1CCN(c2ccccc2)CC1)c1ccccc1 | > 100 |  | > 100 |  | > 100 µM | > 100 | > 100 µM | > 100 | > 100 |  |  |  | > 100
23 | O=C1NC(=O)/C(=C\c2ccncc2)N1 | > 100 | > 100 | > 100 |  | > 100 µM |  | > 100 µM | > 100 | > 100 |  |  |  | > 100
